System: not listed separately
Test: CellTiter-Glo luminescent cell viability (cytotoxicity) assay on hepatocytes
Assay type: cell-based, human
Settings: human; Liver cells, hepatocytes (HepaRG); 0.1 µM; 24 h; vs DMSO vehicle
Experimental: (§1) The cytotoxicity of prepared benzoxazoles (7a–j) and intermediates (6a–j and 9) were measured by applying the CellTiter-Glo® luminescent cell proliferation assay (G755A, Promega, Madison, WI, USA). This method permits the determination of viable cells numbers in the culture based on quantitation of the ATP present, which denotes the presence of metabolically active cells. In vitro cytotoxicity analysis was overall performed following the protocol as described in “Guidance Document on Using in Vitro Data to Estimate in Vivo Starting Doses for Acute Toxicity Based on Recommendations” [18]. Human A-549 cells are human lung cancer epithelial cells, which were chosen as the tumor model, whereas the HepaRG™ cell line is a classic hepatic cell line that retains many characteristics of primary human hepatocytes. HepaRG™ cells are terminally differentiated.
(§2) Human cell cultures: Hepatocytes (HepaRG^TM cells) were obtained from Life Technologies, and were cultivated in William’s E Medium (Gibco, Life Technologies, Waltham, MA, USA) and supplemented with 1x GlutaMAX™ plus 1x HepaRG^TM General Purpose Medium Supplement in 25-cm^2 or 75-cm^2 flasks (TPP, Trasadingen, Switzerland) at 37 °C and 5% CO2. Lung cancer epithelial cells A-549 were propagated in Epilife Medium (Gibco, Life Technologies; MEPICF) and combined with CaCl2 and 1x-growth-supplement containing penicillin and streptomycin (Gibco, Life Technologies). For sub-culturing, cells were split at a ratio of 1:4 to 1:8. For cryopreservation, cells were frozen in 10% DMSO in liquid nitrogen.
(§3) Human cytotoxicity assay: Human hepatocytes or human lung carcinoma cells were seeded into sterile black clear-bottomed polystyrene Corning® CellBind® 96-well plates (Munich, Germany) at a density of 20,000 cells/well after calculating cell numbers from trypsinized samples in a classical Neubauer Improved hemocytometer (VWR, Munich, Germany). The cells were grown for 24 h at 37 °C in a 5% CO2 atmosphere in Epilife medium (keratinocytes) or William′s E medium (hepatocytes). After a 24-h recovery period, media were removed from the wells by aspiration. The cells were then immediately exposed to the respective test compounds or reference antibiotics (prepared in advance in 100 µL of the same media) for 24 h 37 °C with 5% CO2. The concentration tested ranged from 0.1 µM to 500 µM (0.1 µM, 1 µM, 10 µM, 50 µM, 100 µM, 250 µM, and 500 µM) and was formulated as a 100× concentrated stock each, resulting in a final constant DMSO concentration of 1% per 100-µL sample volume. Test series were each performed in triplicate, and additionally included a vehicle reference (DMSO only) plus another internal control for evaluating overall assay performance. Additionally, cells were visually examined under a light microscope for any morphological abnormalities relative to the untreated cells. Subsequently, cell viability, as an indicator of potential cytotoxicity, was measured by applying the CellTiter-Glo® luminescent cell proliferation assay (G755A, Promega, Madison, WI, USA). This method permits the determination of the number of viable cells in culture based on quantitation of the ATP present, which denotes the presence of metabolically active cells. To this end, 100 µL (equal to the volume of culture medium) of the kit-provided CellTiter-Glo® reagent (reconstituted by transferring the thawed CellTiter-Glo® buffer to the lyophilized enzyme and substrate mixture) was directly added to each well with a repetitive dispensing pipette. The contents were then mixed for 2 min at room temperature on an orbital minishaker (IKA® MS3 digital, Staufen, Germany) at 450 rpm to induce efficient cell lysis, and then further incubated for 10 min at room temperature for stabilization of the resultant luminescent signal. […]

**Q.** Which viability at 24 h, 0.1 µM does the source give for `O=[N+]([O-])c1cc(F)c(N2CCN(c3ccccc3)CC2)cc1O` [Compound 6a, 4-Fluoro-2-nitro-5-(4-phenyl-piperazin-1-yl)-phenol] here?
**A.** Its viability at 24 h, 0.1 µM is 86%.

**Q.** With `O=[N+]([O-])c1cc(F)c(N2CCN(c3ccccc3O)CC2)cc1O` [Compound 6f, 4-Fluoro-5-[4-(2-hydroxy-phenyl)-piperazin-1-yl]-2-nitro-phenol] as the compound, how does the viability at 24 h, 0.1 µM read?
**A.** Its viability at 24 h, 0.1 µM is 105%.

**Q.** For `O=[N+]([O-])c1cc(F)c(N2CCN(c3ccccc3F)CC2)cc1O` [Compound 6g, 4-Fluoro-5-[4-(2-fluoro-phenyl)-piperazin-1-yl]-2-nitro-phenol], which viability at 24 h, 0.1 µM is on record?
**A.** The viability at 24 h, 0.1 µM was 110%.

Same assay, conditions: human; Liver cells, hepatocytes (HepaRG); 1 µM; 24 h; vs DMSO vehicle

**Q.** With `O=[N+]([O-])c1cc(F)c(N2CCN(c3ccccc3)CC2)cc1O` [Compound 6a, 4-Fluoro-2-nitro-5-(4-phenyl-piperazin-1-yl)-phenol] as the compound, how does the viability at 24 h, 1 µM read?
**A.** Its viability at 24 h, 1 µM is 97%.

**Q.** Which viability at 24 h, 1 µM does the source give for `O=[N+]([O-])c1cc(F)c(N2CCN(c3ccccc3O)CC2)cc1O` [Compound 6f, 4-Fluoro-5-[4-(2-hydroxy-phenyl)-piperazin-1-yl]-2-nitro-phenol] here?
**A.** The viability at 24 h, 1 µM was 104%.

**Q.** Which viability at 24 h, 1 µM does the source give for `O=[N+]([O-])c1cc(F)c(N2CCN(c3ccccc3F)CC2)cc1O` [Compound 6g, 4-Fluoro-5-[4-(2-fluoro-phenyl)-piperazin-1-yl]-2-nitro-phenol] here?
**A.** Its viability at 24 h, 1 µM is 109%.

Same assay, conditions: human; Liver cells, hepatocytes (HepaRG); 10 µM; 24 h; vs DMSO vehicle

**Q.** Which viability at 24 h, 10 µM does the source give for `O=[N+]([O-])c1cc(F)c(N2CCN(c3ccccc3)CC2)cc1O` [Compound 6a, 4-Fluoro-2-nitro-5-(4-phenyl-piperazin-1-yl)-phenol] here?
**A.** The viability at 24 h, 10 µM was 112%.

**Q.** For `O=[N+]([O-])c1cc(F)c(N2CCN(c3ccccc3O)CC2)cc1O` [Compound 6f, 4-Fluoro-5-[4-(2-hydroxy-phenyl)-piperazin-1-yl]-2-nitro-phenol], which viability at 24 h, 10 µM is on record?
**A.** Its viability at 24 h, 10 µM is 110%.

**Q.** For `O=[N+]([O-])c1cc(F)c(N2CCN(c3ccccc3F)CC2)cc1O` [Compound 6g, 4-Fluoro-5-[4-(2-fluoro-phenyl)-piperazin-1-yl]-2-nitro-phenol], which viability at 24 h, 10 µM is on record?
**A.** The viability at 24 h, 10 µM was 112%.

Same assay, conditions: human; Liver cells, hepatocytes (HepaRG); 50 µM; 24 h; vs DMSO vehicle

**Q.** With `O=[N+]([O-])c1cc(F)c(N2CCN(c3ccccc3)CC2)cc1O` [Compound 6a, 4-Fluoro-2-nitro-5-(4-phenyl-piperazin-1-yl)-phenol] as the compound, how does the viability at 24 h, 50 µM read?
**A.** Its viability at 24 h, 50 µM is 90%.

**Q.** With `O=[N+]([O-])c1cc(F)c(N2CCN(c3ccccc3O)CC2)cc1O` [Compound 6f, 4-Fluoro-5-[4-(2-hydroxy-phenyl)-piperazin-1-yl]-2-nitro-phenol] as the compound, how does the viability at 24 h, 50 µM read?
**A.** The viability at 24 h, 50 µM was 76%.

**Q.** For `O=[N+]([O-])c1cc(F)c(N2CCN(c3ccccc3F)CC2)cc1O` [Compound 6g, 4-Fluoro-5-[4-(2-fluoro-phenyl)-piperazin-1-yl]-2-nitro-phenol], which viability at 24 h, 50 µM is on record?
**A.** The viability at 24 h, 50 µM was 87%.

Same assay, conditions: human; Liver cells, hepatocytes (HepaRG); 100 µM; 24 h; vs DMSO vehicle

**Q.** With `O=[N+]([O-])c1cc(F)c(N2CCN(c3ccccc3)CC2)cc1O` [Compound 6a, 4-Fluoro-2-nitro-5-(4-phenyl-piperazin-1-yl)-phenol] as the compound, how does the viability at 24 h, 100 µM read?
**A.** Its viability at 24 h, 100 µM is 76%.

System: not given
Test: not given
Settings: not given

**Q.** Which melting point does the source give for `O=[N+]([O-])c1cc(F)c(Cl)cc1O` here?
**A.** Its melting point is 82 to 83 °C.

**Q.** Which melting point does the source give for `O=[N+]([O-])c1cc(F)c(N2CCN(c3ccccc3)CC2)cc1O` [Compound 6a, 4-Fluoro-2-nitro-5-(4-phenyl-piperazin-1-yl)-phenol] here?
**A.** The melting point was 197 to 198 °C.

**Q.** For `O=[N+]([O-])c1cc(F)c(N2CCN(c3ccccc3O)CC2)cc1O` [Compound 6f, 4-Fluoro-5-[4-(2-hydroxy-phenyl)-piperazin-1-yl]-2-nitro-phenol], which melting point is on record?
**A.** The melting point was 176 to 178 °C.

**Q.** Which melting point does the source give for `O=[N+]([O-])c1cc(F)c(N2CCN(c3ccccc3F)CC2)cc1O` [Compound 6g, 4-Fluoro-5-[4-(2-fluoro-phenyl)-piperazin-1-yl]-2-nitro-phenol] here?
**A.** Its melting point is 180 to 181 °C.

System: A-549 lung carcinoma cells
Test: CellTiter-Glo luminescent cell viability (cytotoxicity) assay on lung cancer cells
Assay type: cell-based, human
Settings: A-549; 10 µM
Experimental: as §1, §2, §3

**Q.** Which “Lung cancer cells killed” value does the source give for `O=[N+]([O-])c1cc(F)c(N2CCN(c3ccccc3)CC2)cc1O` [Compound 6a, 4-Fluoro-2-nitro-5-(4-phenyl-piperazin-1-yl)-phenol] here?
**A.** Its value is ~ 40%.

**Q.** With `O=[N+]([O-])c1cc(F)c(N2CCN(c3ccccc3F)CC2)cc1O` [Compound 6g, 4-Fluoro-5-[4-(2-fluoro-phenyl)-piperazin-1-yl]-2-nitro-phenol] as the compound, how does the “Lung cancer cells killed” value read?
**A.** The value was ~ 40%.

Same assay, conditions: Homo sapiens, A549; Lung cancer cells (A-549); 0.1 µM; 24 h; vs DMSO vehicle

**Q.** Which viability at 0.1 µM does the source give for `O=[N+]([O-])c1cc(F)c(N2CCN(c3ccccc3)CC2)cc1O` [Compound 6a, 4-Fluoro-2-nitro-5-(4-phenyl-piperazin-1-yl)-phenol] here?
**A.** The viability at 0.1 µM was 97%.

**Q.** Which viability at 0.1 µM does the source give for `O=[N+]([O-])c1cc(F)c(N2CCN(c3ccccc3O)CC2)cc1O` [Compound 6f, 4-Fluoro-5-[4-(2-hydroxy-phenyl)-piperazin-1-yl]-2-nitro-phenol] here?
**A.** The viability at 0.1 µM was 97%.

**Q.** Which viability at 0.1 µM does the source give for `O=[N+]([O-])c1cc(F)c(N2CCN(c3ccccc3F)CC2)cc1O` [Compound 6g, 4-Fluoro-5-[4-(2-fluoro-phenyl)-piperazin-1-yl]-2-nitro-phenol] here?
**A.** The viability at 0.1 µM was 96%.

Same assay, conditions: Homo sapiens, A549; Lung cancer cells (A-549); 1 µM; 24 h; vs DMSO vehicle

**Q.** With `O=[N+]([O-])c1cc(F)c(N2CCN(c3ccccc3)CC2)cc1O` [Compound 6a, 4-Fluoro-2-nitro-5-(4-phenyl-piperazin-1-yl)-phenol] as the compound, how does the viability at 1 µM read?
**A.** The viability at 1 µM was 104%.

**Q.** For `O=[N+]([O-])c1cc(F)c(N2CCN(c3ccccc3O)CC2)cc1O` [Compound 6f, 4-Fluoro-5-[4-(2-hydroxy-phenyl)-piperazin-1-yl]-2-nitro-phenol], which viability at 1 µM is on record?
**A.** The viability at 1 µM was 100%.

**Q.** For `O=[N+]([O-])c1cc(F)c(N2CCN(c3ccccc3F)CC2)cc1O` [Compound 6g, 4-Fluoro-5-[4-(2-fluoro-phenyl)-piperazin-1-yl]-2-nitro-phenol], which viability at 1 µM is on record?
**A.** Its viability at 1 µM is 96%.

Same assay, conditions: Homo sapiens, A549; Lung cancer cells (A-549); 10 µM; 24 h; vs DMSO vehicle

**Q.** For `O=[N+]([O-])c1cc(F)c(N2CCN(c3ccccc3)CC2)cc1O` [Compound 6a, 4-Fluoro-2-nitro-5-(4-phenyl-piperazin-1-yl)-phenol], which viability at 10 µM is on record?
**A.** Its viability at 10 µM is 64%.

**Q.** With `O=[N+]([O-])c1cc(F)c(N2CCN(c3ccccc3O)CC2)cc1O` [Compound 6f, 4-Fluoro-5-[4-(2-hydroxy-phenyl)-piperazin-1-yl]-2-nitro-phenol] as the compound, how does the viability at 10 µM read?
**A.** Its viability at 10 µM is 93%.

**Q.** With `O=[N+]([O-])c1cc(F)c(N2CCN(c3ccccc3F)CC2)cc1O` [Compound 6g, 4-Fluoro-5-[4-(2-fluoro-phenyl)-piperazin-1-yl]-2-nitro-phenol] as the compound, how does the viability at 10 µM read?
**A.** Its viability at 10 µM is 62%.

Same assay, conditions: Homo sapiens, A549; Lung cancer cells (A-549); 50 µM; 24 h; vs DMSO vehicle

**Q.** With `O=[N+]([O-])c1cc(F)c(N2CCN(c3ccccc3)CC2)cc1O` [Compound 6a, 4-Fluoro-2-nitro-5-(4-phenyl-piperazin-1-yl)-phenol] as the compound, how does the viability at 50 µM read?
**A.** Its viability at 50 µM is 61%.

**Q.** With `O=[N+]([O-])c1cc(F)c(N2CCN(c3ccccc3O)CC2)cc1O` [Compound 6f, 4-Fluoro-5-[4-(2-hydroxy-phenyl)-piperazin-1-yl]-2-nitro-phenol] as the compound, how does the viability at 50 µM read?
**A.** Its viability at 50 µM is 60%.

**Q.** With `O=[N+]([O-])c1cc(F)c(N2CCN(c3ccccc3F)CC2)cc1O` [Compound 6g, 4-Fluoro-5-[4-(2-fluoro-phenyl)-piperazin-1-yl]-2-nitro-phenol] as the compound, how does the viability at 50 µM read?
**A.** The viability at 50 µM was 51%.

Same assay, conditions: Homo sapiens, A549; Lung cancer cells (A-549); 100 µM; 24 h; vs DMSO vehicle

**Q.** Which viability at 100 µM does the source give for `O=[N+]([O-])c1cc(F)c(N2CCN(c3ccccc3)CC2)cc1O` [Compound 6a, 4-Fluoro-2-nitro-5-(4-phenyl-piperazin-1-yl)-phenol] here?
**A.** Its viability at 100 µM is 58%.

**Q.** With `O=[N+]([O-])c1cc(F)c(N2CCN(c3ccccc3O)CC2)cc1O` [Compound 6f, 4-Fluoro-5-[4-(2-hydroxy-phenyl)-piperazin-1-yl]-2-nitro-phenol] as the compound, how does the viability at 100 µM read?
**A.** The viability at 100 µM was 46%.

**Q.** Which viability at 100 µM does the source give for `O=[N+]([O-])c1cc(F)c(N2CCN(c3ccccc3F)CC2)cc1O` [Compound 6g, 4-Fluoro-5-[4-(2-fluoro-phenyl)-piperazin-1-yl]-2-nitro-phenol] here?
**A.** Its viability at 100 µM is 42%.

— publication PMC6274350, “Design, Synthesis, and Cytotoxicity of 5-Fluoro-2-methyl-6-(4-aryl-piperazin-1-yl) Benzoxazoles” (Molecules, 2016)
